Test results reported in publication PMC10747602, “Dose Response, Dosimetric, and Metabolic Evaluations of Replacement PFAS Perfluoro-(2,5,8-trimethyl-3,6,9-trioxadodecanoic) Acid (HFPO-TeA)” (Toxics, 2023).
Several values for one entry are separate records, joined by “and”; a condition that tells them apart may be missing. Identical values can stand only once. Like-named read-outs stand apart in the source and are kept apart here.

Assay: Plasma HFPO-TeA dosimetry
Format: in vivo, Sprague Dawley rats
Experimental: Whole blood was collected from the retro-orbital plexus under isoflurane anesthesia 2 h following the first dose and by cardiac puncture 24 h after the last dosage. Blood was stored in anticoagulant potassium ethylenediaminetetraacetic acid (K3EDTA)-coated vacutainers, and then processed to isolate plasma via centrifugation. Animals were euthanized via carbon dioxide asphyxiation and subsequent exsanguination. Liver was collected, weighed, cubed, and divided into three aliquots. One aliquot of tissue was flash-frozen in liquid nitrogen and stored at −80 °C for analytical chemistry analyses. The remaining two aliquots were placed in RNALater and frozen for use in the companion transcriptomic study. Liver and plasma samples were received at the U.S. EPA Center for Computational Toxicology and Exposure, Advanced Analytical Chemistry Methods Branch in Research Triangle Park, North Carolina, USA, and stored at −80 °C prior to extraction.
Detailed information on the procedure, chemicals, and materials used in the plasma HFPO-TeA dosimetry work can be found in Supplementary Text S4 and Table S3. Plasma preparation (2 h and 5 days) was modified from Conley et al.’s work and is detailed in Supplementary Text S4 [45]. Briefly, aliquots (25 µL) were mixed with methanol (MeOH) and water (H2O) containing 0.1 M FA, spiked with the internal standard perfluorohexadecanoic acid (PFHxDA), and then denatured plasma proteins were precipitated using ACN. Samples were held at −20 °C then centrifuged for separation of the supernatant. Supernatants were collected and stored at −20 °C prior to analysis.
Targeted analysis of HFPO-TeA was conducted on a Sciex X500R QTOF liquid chromatography/mass spectrometer system operated in high-resolution MRM negative ion ESI mode. A Phenomenex C18 column (Kinetex XB-C18, 100 × 2.1 mm, particle size 2.6 µm) was used for chromatographic separation with the flow rate set to 0.2 mL/min and a temperature of 40 °C. […] Ammonium formate (4 mM) was added to both eluents. Additional details of the instrument parameters are provided in Table S8 and monitored transitions in Table S9. Matrix blanks were analyzed with each sample set. Statistical analysis is described in Supplementary Text S3. Normalization calculations are described in Supplementary Text S5 [47, 48].
All in vivo results values are reported as mean ± one standard deviation (SD). Statistical evaluation of in vivo data was conducted using a two-way analysis of variance (ANOVA) and Dunnett’s Test, both at α = 0.05 significance level, on GraphPad Prism v9.5.1.
Support ing Text S4: Plasma Dosimetry Chemicals, Materials, and Analysis Sprague Dawley rodent plasma (pooled, mixed sex) collected with ethylenediaminetetraacetic acid (EDTA) and sterile filtered (0.2 µm) was obtained from BioIVT (Westbury, NY, USA) and stored at -80 °C until use as the control matrix for generating calibration curves and as the matrix blank during plasma sample analysis. The HFPO-TeA (98.97% pure) used for calibration curve preparation was obtained from Oakwood Products Inc. (West Columbia, South Carolina, USA). Unlabeled perfluorohexadecanoic acid (CASRN 67905-19-5 | DTXSID1070800 | PFHxDA; ≥ 98% pure) was obtained from Cambridge Isotope Laboratories (Tewksbury, MA, USA) to serve as the internal standard since a labeled HFPO-TeA standard was not commercially available.
Aliquots (25 µL) were denatured with MeOH and H2O containing 0.1 M FA and then crashed using ACN. Volumes of MeOH, FA, and ACN were determined by the anticipated sample concentrations of […]
HFPO-TeA/mL plasma = 100 µL MeOH + 875 µL FA then 50 µL subsample removed and crashed with 950 µL ACN. Anticipated sample ranges were intentionally overlapped to account for HFPO-TeA concentration differences due to biological variability among the dose groups. The internal standard PFHxDA was added prior to the ACN crash. Samples were vortexed after the addition of each solvent. […]

## O=C(O)C(F)(OC(F)(F)C(F)(OC(F)(F)C(F)(OC(F)(F)C(F)(F)C(F)(F)F)C(F)(F)F)C(F)(F)F)C(F)(F)F (stereo not drawn) [HFPO-TeA, perfluoro-(2,5,8-trimethyl-3,6,9-trioxadodecanoic) acid]
0.3 mg/kg/day, F, 2 hours, individual rats
  Plasma Conc.: 0.124 µg/mL and 0.187 µM and 0.0778 µg/mL and 0.117 µM and 0.0785 µg/mL and 0.119 µM
0.3 mg/kg/day, F, 5 days of exposure, mean ± SD n=4
  5D Plasma Conc.: 0.854 ± 0.086 µM
0.3 mg/kg/day, F, 5 days, individual rats
  Plasma Conc.: 0.492 µg/mL and 0.743 µM and 0.622 µg/mL and 0.939 µM
0.3 mg/kg/day, M, 2 hours, individual rats
  Plasma Conc.: 0.094 µg/mL and 0.142 µM and 0.086 µg/mL and 0.129 µM and 0.101 µg/mL and 0.153 µM
0.3 mg/kg/day, M, 5 days of exposure, mean ± SD n=4
  5D Plasma Conc.: 0.827 ± 0.071 µM
0.3 mg/kg/day, M, 5 days of exposure, mean ± SD n=4, read-out: 5D Plasma Conc.
  concentration at 5 days: 827 nM
0.3 mg/kg/day, M, 5 days, individual rats
  Plasma Conc.: 0.586 µg/mL and 0.885 µM and 0.567 µg/mL
0.9 mg/kg/day, F, 2 hours, individual rats
  Plasma Conc.: 0.309 µg/mL and 0.467 µM and 0.418 µg/mL and 0.631 µM and 0.392 µg/mL and 0.592 µM
0.9 mg/kg/day, M, 2 hours, individual rats
  Plasma Conc.: 0.291 µg/mL and 0.439 µM and 0.450 µg/mL and 0.679 µM and 0.345 µg/mL and 0.521 µM
0.9 mg/kg/day, M, 5 days of exposure, mean ± SD n=4
  5D Plasma Conc.: 2.73 ± 0.45 µM
0.9 mg/kg/day, M, 5 days of exposure, mean ± SD n=4, read-out: 5D Plasma Conc.
  concentration at 5 days: 2730 nM
0.9 mg/kg/day, M, 5 days, individual rats
  Plasma Conc.: 1.45 µg/mL and 2.19 µM and 2.16 µg/mL and 3.26 µM and 1.75 µg/mL and 2.65 µM
2.3 mg/kg/day, F, 2 hours, individual rats
  Plasma Conc.: 6.87 µg/mL and 10.4 µM and 7.78 µg/mL and 11.7 µM and 10.8 µg/mL and 16.3 µM and 14.6 µg/mL and 22.1 µM
2.3 mg/kg/day, M, 2 hours, individual rats
  Plasma Conc.: 11.4 µg/mL and 17.3 µM and 8.06 µg/mL and 12.2 µM and 7.45 µg/mL and 11.3 µM
2.3 mg/kg/day, M, 5 days, individual rats
  Plasma Conc.: 3.35 µg/mL and 5.06 µM and 3.50 µg/mL and 5.29 µM and 5.04 µg/mL and 7.61 µM
6.3 mg/kg/day, F, 2 hours, individual rats
  Plasma Conc.: 19.5 µg/mL and 29.5 µM and 43.9 µg/mL and 66.4 µM and 41.1 µg/mL and 62.0 µM and 36.3 µg/mL and 54.9 µM
6.3 mg/kg/day, F, 5 days of exposure, mean ± SD n=4
  5D Plasma Conc.: 52.6 ± 14.3 µM
6.3 mg/kg/day, M, 2 hours, individual rats
  Plasma Conc.: 24.4 µg/mL and 36.8 µM and 17.1 µg/mL and 25.8 µM and 24.9 µg/mL and 37.7 µM
6.3 mg/kg/day, M, 5 days, individual rats
  Plasma Conc.: 15.5 µg/mL and 15.1 µg/mL and 22.9 µM and 23.8 µM and 18.5 µg/mL and 28.0 µM
17 mg/kg/day, F, 2 h after first dose, mean ± SD n=4
  2 h Plasma Conc.: 224 ± 76 µM
17 mg/kg/day, F, 2 hours, individual rats
  Plasma Conc.: 197 µg/mL and 298 µM and 184 µg/mL and 278 µM and 94.0 µg/mL and 142 µM and 118 µg/mL and 179 µM
17 mg/kg/day, F, 5 days of exposure, mean ± SD n=4
  5D Plasma Conc.: 278 ± 28 µM
17 mg/kg/day, M, 2 h after first dose, mean ± SD n=4
  2 h Plasma Conc.: 126 ± 62 µM
17 mg/kg/day, M, 2 hours, individual rats
  Plasma Conc.: 60.6 µg/mL and 91.6 µM and 55.8 µg/mL and 84.3 µM and 73.0 µg/mL and 110 µM and 218 µM
17 mg/kg/day, M, 5 days of exposure, mean ± SD n=4
  5D Plasma Conc.: 168 ± 53 µM
17 mg/kg/day, M, 5 days of exposure, mean ± SD n=4, read-out: 5D Plasma Conc.
  concentration at 5 days: 168000 nM
17 mg/kg/day, M, 5 days, individual rats
  Plasma Conc.: 65.4 µg/mL and 98.9 µM and 109 µg/mL and 165 µM and 150 µg/mL and 227 µM and 118 µg/mL and 179 µM
female, Sprague Dawley, rat, plasma, oral, 0.3 mg/kg/day, F, 2 h after first dose, mean ± SD n=4, read-out: 2 h Plasma Conc.
  concentration at 2 h: 0.137 ± 0.033 µM
female, Sprague Dawley, rat, plasma, oral, 0.3 mg/kg/day, F, 2 hours, individual rats, read-out: Plasma Conc.
  concentration at 2 h: 82 ng/mL and 124 nM
female, Sprague Dawley, rat, plasma, oral, 0.3 mg/kg/day, F, 5 days, individual rats, read-out: Plasma Conc.
  concentration at 5 days: 550 ng/mL and 831 nM
female, Sprague Dawley, rat, plasma, oral, 0.9 mg/kg/day, F, 2 h after first dose, mean ± SD n=4, read-out: 2 h Plasma Conc.
  concentration at 2 h: 0.62 ± 0.133 µM
female, Sprague Dawley, rat, plasma, oral, 0.9 mg/kg/day, F, 2 hours, individual rats, read-out: Plasma Conc.
  concentration at 2 h: 523 ng/mL and 790 nM
female, Sprague Dawley, rat, plasma, oral, 0.9 mg/kg/day, F, 5 days of exposure, mean ± SD n=4, read-out: 5D Plasma Conc.
  concentration at 5 days: 3620 ± 910 nM
female, Sprague Dawley, rat, plasma, oral, 0.9 mg/kg/day, F, 5 days, individual rats, read-out: Plasma Conc.
  concentration at 5 days: 1870 ng/mL and 2.83 µM
female, Sprague Dawley, rat, plasma, oral, 2.3 mg/kg/day, F, 2 h after first dose, mean ± SD n=4, read-out: 2 h Plasma Conc.
  concentration at 2 h: 15.1 ± 5.3 µM
female, Sprague Dawley, rat, plasma, oral, 2.3 mg/kg/day, F, 5 days of exposure, mean ± SD n=4, read-out: 5D Plasma Conc.
  concentration at 5 days: 8920 ± 2360 nM
female, Sprague Dawley, rat, plasma, oral, 2.3 mg/kg/day, F, 5 days, individual rats, read-out: Plasma Conc.
  concentration at 5 days: 5700 ng/mL and 8.62 µM
female, Sprague Dawley, rat, plasma, oral, 6.3 mg/kg/day, F, 2 h after first dose, mean ± SD n=4, read-out: 2 h Plasma Conc.
  concentration at 2 h: 53.2 ± 16.5 µM
female, Sprague Dawley, rat, plasma, oral, 6.3 mg/kg/day, F, 5 days of exposure, mean ± SD n=4, read-out: 5D Plasma Conc.
  concentration at 5 days: 52600 ± 14300 nM
female, Sprague Dawley, rat, plasma, oral, 6.3 mg/kg/day, F, 5 days, individual rats, read-out: Plasma Conc.
  concentration at 5 days: 33900 ng/mL and 51.2 µM
female, Sprague Dawley, rat, plasma, oral, 17 mg/kg/day, F, 2 h after first dose, mean ± SD n=4, read-out: 2 h Plasma Conc.
  concentration at 2 h: 224 ± 76 µM
female, Sprague Dawley, rat, plasma, oral, 17 mg/kg/day, F, 5 days, individual rats, read-out: Plasma Conc.
  concentration at 5 days: 200000 ng/mL and 302 µM
male, Sprague Dawley, rat, plasma, oral, 0.3 mg/kg/day, M, 2 h after first dose, mean ± SD n=4, read-out: 2 h Plasma Conc.
  concentration at 2 h: 0.15 ± 0.02 µM
male, Sprague Dawley, rat, plasma, oral, 0.3 mg/kg/day, M, 2 hours, individual rats, read-out: Plasma Conc.
  concentration at 2 h: 117 ng/mL and 176 nM
male, Sprague Dawley, rat, plasma, oral, 0.3 mg/kg/day, M, 5 days, individual rats, read-out: Plasma Conc.
  concentration at 5 days: 558 ng/mL and 843 nM
male, Sprague Dawley, rat, plasma, oral, 0.9 mg/kg/day, M, 2 h after first dose, mean ± SD n=4, read-out: 2 h Plasma Conc.
  concentration at 2 h: 0.573 ± 0.113 µM
male, Sprague Dawley, rat, plasma, oral, 0.9 mg/kg/day, M, 2 hours, individual rats, read-out: Plasma Conc.
  concentration at 2 h: 431 ng/mL and 651 nM
male, Sprague Dawley, rat, plasma, oral, 0.9 mg/kg/day, M, 5 days, individual rats, read-out: Plasma Conc.
  concentration at 5 days: 1870 ng/mL and 2.83 µM
male, Sprague Dawley, rat, plasma, oral, 2.3 mg/kg/day, M, 2 h after first dose, mean ± SD n=4, read-out: 2 h Plasma Conc.
  concentration at 2 h: 13.1 ± 2.8 µM
male, Sprague Dawley, rat, plasma, oral, 2.3 mg/kg/day, M, 2 hours, individual rats, read-out: Plasma Conc.
  concentration at 2 h: 7650 ng/mL and 11.6 µM
male, Sprague Dawley, rat, plasma, oral, 2.3 mg/kg/day, M, 5 days of exposure, mean ± SD n=4, read-out: 5D Plasma Conc.
  concentration at 5 days: 6640 ± 1730 nM
male, Sprague Dawley, rat, plasma, oral, 2.3 mg/kg/day, M, 5 days, individual rats, read-out: Plasma Conc.
  concentration at 5 days: 5680 ng/mL and 8.58 µM
male, Sprague Dawley, rat, plasma, oral, 6.3 mg/kg/day, M, 2 h after first dose, mean ± SD n=4, read-out: 2 h Plasma Conc.
  concentration at 2 h: 34 ± 5.5 µM
male, Sprague Dawley, rat, plasma, oral, 6.3 mg/kg/day, M, 2 hours, individual rats, read-out: Plasma Conc.
  concentration at 2 h: 23700 ng/mL and 35.8 µM
male, Sprague Dawley, rat, plasma, oral, 6.3 mg/kg/day, M, 5 days of exposure, mean ± SD n=4, read-out: 5D Plasma Conc.
  concentration at 5 days: 24500 ± 2300 nM
male, Sprague Dawley, rat, plasma, oral, 6.3 mg/kg/day, M, 5 days, individual rats, read-out: Plasma Conc.
  concentration at 5 days: 23300 nM
male, Sprague Dawley, rat, plasma, oral, 17 mg/kg/day, M, 2 h after first dose, mean ± SD n=4, read-out: 2 h Plasma Conc.
  concentration at 2 h: 126 ± 62 µM
